Each structure is given as a SMILES string.

The experiment deals with patients with MDD. Kind of experiment: Double-masked, placebo-controlled clinical study of tasimelteon in patients with MDD (NCT01428661), Hamilton Depression Scale. The class given is in vivo, human. The procedure: A large clinical study was conducted to evaluate the effects of tasimelteon on depressive symptoms in patients with MDD. Details of the study design are set out in study number NCT01428661, available at clinicaltrials.gov. Aspects of the study relevant to the claimed invention are described below.
A total of 507 patients with MDD were enrolled in a double-masked, placebo-controlled study randomized on either tasimelteon 20 mg (n=254) or placebo (n=253). Patients were assessed at baseline and weekly for eight weeks on a number of depression scales, including the Hamilton Depression Scale (HAMD).

For the molecule `CCC(=O)NC[C@@H]1C[C@H]1c1cccc2c1CCO2` (relative stereo) [Tasimelteon, trans-N-[[2-(2,3-dihydrobenzofuran-4-yl)cycloprop-1yl]methyl] propanamide], the “improvement on the HAMD scale” value (African-American MDD patients, at eight weeks, tasimelteon 20 mg (n=78), p=0.018 vs placebo) is listed as 9.9 points. Moreover, for the setting “African-American MDD patients, at eight weeks, tasimelteon 20 mg, p=0.0019 vs placebo”, the “responder analysis (improvement in the HAMD scale of 50% or greater from baseline), patients showing improvement” value came to 59%. In addition, the “improvement from baseline on the HAMD scale” value (all randomized MDD patients, tasimelteon 20 mg (n=254), p=0.57 vs placebo) stood at 8.1 points.

These data come from patent US20220280471A1, “Treatment of Affective Disorders” (Vanda Pharmaceuticals Inc., priority 2017, published 2022).
